One assay deals with T1, hSTING HAQ allele (Homo sapiens, UniProt Q86WV6, G230A/H232R/R293Q/R71H).
T1 construct: a human monocyte cell line containing the hSTING HAQ allele; host or cells: THP1-Dual cells
Put plainly: IRF-3 inducible secreted luciferase reporter in THP1-Dual cells without digitonin. Type of assay: cell-based. Particulars: for EC50: without digitonin in THP1 cells (HAQ allele); for activity relative to OH reference compound, in words: Table 5 comment, THP1 cells without digitonin. How it is done: After 30 minutes, cells were washed and fresh RPMI media containing 10% FBS was added, and cells were incubated at 37° C. with 5% CO2 Cell culture supernatants from each sample were collected after overnight incubation, and 10 μL of the cell culture supernatants was added to 50 μL QUANTI-Luc reagent (Invivogen). Type I interferon activation was determined by measuring secreted luciferase levels on a SpectraMax M3 spectrophotometer (Molecular Devices). The EC50 value was determined from the dose-response curve for the 10 concentrations from the serial dilution of the reference compounds and compounds of the invention tested in this assay as listed in Table 5.

In assay [1] the target is T2, human-STING(E149-S379)H232R protein (Homo sapiens, UniProt Q86WV6, H232R).
T2 construct: His6 (C); made in house; host or cells: E. coli
T2 sequence (Q86WV6 with tags, fused parts or gaps H232R): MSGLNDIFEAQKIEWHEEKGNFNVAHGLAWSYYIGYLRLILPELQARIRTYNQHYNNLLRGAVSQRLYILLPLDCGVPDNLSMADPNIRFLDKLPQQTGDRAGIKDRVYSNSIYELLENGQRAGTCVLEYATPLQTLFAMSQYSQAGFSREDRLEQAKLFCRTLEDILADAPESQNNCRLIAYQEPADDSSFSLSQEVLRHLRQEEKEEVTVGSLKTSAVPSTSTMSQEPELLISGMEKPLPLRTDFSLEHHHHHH
Put plainly: Surface Plasmon Resonance binding to hSTING WT. The conditions noted are these: Biacore T200, 15° C., steady-state analysis. Here is the method: Binding of the mono- and di-F CDN compounds was assessed using Surface Plasmon Resononce to determine a binding constant. An E. coli expression construct (human-STING[E149-S379]H232R) was prepared harboring the protein sequence:
Aliquots were prepared and stored at −80° C. in 30 mM Tris pH 7.5/100 mM NaCl/10% glycerol.
N-terminal avi-tagged human-STING(E149-S379)H232R protein was immobilized (2500 RUs) on a streptavidin chip at 15° C. in a Biacore T200 (GE Healthcare). Titrations of cyclic dinucleotides (CDNs as indicated in Table 6) in 30 mM Tris pH 7.5/50 mM NaCL/0.005% Tween 20/1 mM DTT/2% DMSO, were profiled (30 μLs/min, 180 seconds for sample contact/120 seconds for dissociation) against hSTING at 15° C. Kinetic analysis of the data was performed using Biacore T200 Evaluation software. Steady-state analysis of the data was performed using Graphpad Prism 6.0 software, using one site-specific binding algorithm (Equation is Y=Bmax*X/(Kd+X)).

Another assay deals with hSTING(REF) (Homo sapiens, UniProt Q86WV6). Put plainly: Differential scanning fluorometry (DSF) binding to purified hSTING REF allele. The conditions noted are these: for hSTING Tm Shift REF: DSF, 1 mg/ml STING AA140-379, ligand 1 mM; for binding relative to OH reference compound, in words: Table 4 comment, REF allele hSTING. More on the design: DNA encoding amino acids 140-379 (amino acid numbering corresponding to Swiss Prot Q86WV6); 6xHIS (N, cleaved yes); SUMO (N, cleaved yes); made in house; host or cells: Rosetta2 (DE3) E. coli. Here is the method:
(§1) Cells were grown in lysogeny broth at 37° C. until a […] absorbance of 0.6 was reached. […] Cell pellets were re-suspended on ice in a buffer containing 50 mM Tris hydrochloride (Tris-HCl) pH 7.5, 500 mM sodium chloride (NaCl), 20 mM imidazole, 10% glycerol, 1 mM tris(2-carboxyethyl)phosphine hydrochloride (TCEP) and protease inhibitor tablet (Pierce) (Buffer A). Cells were lysed using an S-450D sonifier (Emmerson industrial) on ice. […] Protein was aliquoted, flash frozen in liquid nitrogen and stored at −80° C. until use.
(§2) The protein is heated in the presence of a dye that binds to and fluoresces in hydrophobic environments. The protein is thermally denatured by heating resulting in increased dye binding to the unfolded protein and fluorescence. The temperature midpoint (Tm) of a proteins denaturation is established by calculating the half maximal value of the denaturation curve. The temperature midpoint of the protein in the presence of a ligand is directly related to the affinity of the ligand for the protein and therefore its ability to stabilize the protein at higher temperatures.
(§3) Samples were placed in hard shell PCR plate (Bio-Rad). The fluorescence as a function of temperature was recorded in a CFX 96 real time PCR machine (Bio-Rad) reading on the HEX channel, excitation 450-490, emission 560-580 nm. The temperature gradient was from 15-80° C. ramping 0.5° C. per 15 seconds and recording every 0.5° C. After subtraction of the background signal from a sample lacking protein and ligand. The midpoint temperature (Tm) was calculated by fitting the curves of the fluorescence as a function of temperature to a Boltzmann sigmoidal function (Graph Pad Prism).
Background: In DSF a fluorescence change marks the thermal transition of the protein.

For the next assay, the target named is hSTING(WT) (Homo sapiens, UniProt Q86WV6, H232R). Put plainly: Differential scanning fluorometry (DSF) binding to purified hSTING WT. The conditions noted are these: for hSTING Tm Shift WT: DSF, 1 mg/ml STING AA140-379, ligand 1 mM; for binding relative to OH reference compound, in words: Table 4 comment, wild type hSTING. More on the design: DNA encoding amino acids 140-379 (amino acid numbering corresponding to Swiss Prot Q86WV6); 6xHIS (N, cleaved yes); SUMO (N, cleaved yes); made in house; host or cells: Rosetta2 (DE3) E. coli. Here is the method: as §1, §2, §3
hSTING(WT), sequence (Q86WV6 140-379 H232R): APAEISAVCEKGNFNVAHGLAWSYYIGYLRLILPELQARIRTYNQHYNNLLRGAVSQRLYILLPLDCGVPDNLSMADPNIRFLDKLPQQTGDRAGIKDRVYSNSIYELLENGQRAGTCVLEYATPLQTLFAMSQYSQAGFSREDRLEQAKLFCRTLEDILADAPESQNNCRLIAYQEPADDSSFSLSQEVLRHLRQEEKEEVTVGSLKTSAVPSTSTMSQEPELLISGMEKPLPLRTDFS

For a further assay, the target named is T3, HAQ allele hSTING (Homo sapiens, UniProt Q86WV6, G230A/H232R/R293Q).
T3 construct: DNA encoding amino acids 140-379 (amino acid numbering corresponding to Swiss Prot Q86WV6); 6xHIS (N, cleaved yes); SUMO (N, cleaved yes); made in house; host or cells: Rosetta2 (DE3) E. coli
T3 sequence (Q86WV6 140-379 G230A/H232R/R293Q limits assumed): as the sequence (Q86WV6 140-379 H232R) above, with G91A, R154Q counted along it
In words: Differential scanning fluorometry (DSF) binding to purified hSTING HAQ allele. The conditions noted are these: for hSTING Tm Shift HAQ: DSF, 1 mg/ml STING AA140-379, ligand 1 mM; for binding relative to OH reference compound, in words: Table 4 comment, HAQ allele hSTING. Here is the method:
as §1, §2, §3

Assay [2] has as its target T4, reference (REF) STING allele (Homo sapiens, UniProt Q86WV6).
T4 construct: endogenous in cells
Put plainly: Cytokine transcript induction (qRT-PCR) in STING^REF/REF hPBMCs. Type of assay: cell-based. Particulars: FIGS. 9B-13B, 2 hours and 6 hours stimulation. How it is done: The induction of type I interferon was measured in human primary blood mononuclear cells (hPBMCs) to evaluate the potency of mono- or di-F-CDN compounds as described herein. hPBMCs from two unique donors were used: one donor was homozygous for the wild type (WT) STING allele (STING^WT/WT) and the other donor was homozygous for the so-called reference (REF) STING allele (STING^REF/REF). The STING genotype of these donors was determined by PCR amplification and sequencing: genomic DNA was isolated from 10^4 hPBMCs using Quick Extract DNA Extraction Solution (Epicentre) and was used to amplify regions of exon 3, 6, and 7 of the human STING gene.
Cells were incubated at 37° C., 5% CO2 with concentrations ranging from 100 μM to 0.1 μM of each CDN. After 2 hours (FIGS. 7 and 8) or 2 hours and 6 hours (FIGS. 9-13) stimulation, cells were harvested by centrifugation and washed once with phosphate-buffered saline. Cellular RNA was isolated using the Aurum Total RNA 96 Kit and cDNA was synthesized using the iScript cDNA Synthesis Kit. Target and reference gene expression was assessed by real-time qRT-PCR using PrimePCR probe assays and the CFX96 gene cycler (all reagents and equipment from BioRad). Normalized IFNβ expression was expressed relative to untreated cells. Target genes included type I interferon (IFNβ), Th1-associated cytokines (IFNγ, IL-12p40) and NF-kB dependent inflammatory cytokines (TNFα, IL-6). Reference genes included GUSB alone (FIGS. 7 and 8) or GUSB and HSP90AB1 (FIGS. 9-13).
For orientation: In qPCR the cycle at which signal appears reflects the starting amount.

Data on three molecules can be found in patent US11040053B2, “Compositions and methods for activating “stimulator of interferon gene”13 dependent signalling” (CHINOOK THERAPEUTICS, INC., priority 2015, dated 2021).

hSTING(REF), sequence (Q86WV6 140-379): as the sequence (Q86WV6 140-379 H232R) above, with R93H counted along it
T4 sequence (Q86WV6 whole entry): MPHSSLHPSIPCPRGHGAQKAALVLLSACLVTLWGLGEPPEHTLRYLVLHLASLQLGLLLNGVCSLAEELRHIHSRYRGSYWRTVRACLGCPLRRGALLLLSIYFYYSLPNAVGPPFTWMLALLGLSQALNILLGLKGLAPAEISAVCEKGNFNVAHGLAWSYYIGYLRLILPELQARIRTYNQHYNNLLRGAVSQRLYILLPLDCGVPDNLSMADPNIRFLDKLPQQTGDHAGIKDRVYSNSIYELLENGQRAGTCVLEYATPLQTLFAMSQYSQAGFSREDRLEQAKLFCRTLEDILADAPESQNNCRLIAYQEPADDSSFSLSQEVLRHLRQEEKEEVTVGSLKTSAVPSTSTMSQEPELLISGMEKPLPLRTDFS
T1 sequence (Q86WV6 whole entry R71H/G230A/H232R/R293Q): as the sequence (Q86WV6 whole entry) above, with R71H, G230A, H232R, R293Q counted along it

As to `Nc1ncnc2c1ncn2[C@@H]1O[C@@H]2CO[P@@](=O)(S)O[C@H]3[C@@H](F)[C@H](n4cnc5c(N)ncnc54)O[C@@H]3CO[P@@](=O)(S)O[C@H]2[C@H]1O` [Compound 22, (2R,3R,3aR,5R,7aR,9R,10R,10aS,12R,14aR)-2,9-bis(6-amino-9H-purin-9-yl)-3-fluoro-10-hydroxy-5,12-dimercaptooctahydro-2H,7H-difuro[3,2-d:3′,2′-j][1,3,7,9]tetraoxa[2,8]diphosphacyclododecine 5,12-dioxide], a half-maximal response at hSTING HAQ allele (EC50) required 59 µM. Also, the Kd (usually the concentration at which binding is half-saturated) in assay [1] is 1.28 µM. Also, the “hSTING Tm Shift REF” value at hSTING(REF) turned out to be 5.4 °C. In addition, the “hSTING Tm Shift WT” value at hSTING(WT) was determined as 9.4 °C. In addition, the “hSTING Tm Shift HAQ” value at HAQ allele hSTING amounted to 16.0 °C. In addition, in assay [2], the “cytokine responses (IFNβ, TNFα, IL-6, IFNγ, IL-12p40 expression), in words” value (from here on “cytokine responses”) is recorded as “able to elicit cytokine responses at 6 hours stimulation with 100 μM of compound”.

As to `Nc1nc2c(ncn2[C@@H]2O[C@@H]3CO[P@@](=O)(S)O[C@H]4[C@@H](F)[C@H](n5cnc6c(N)ncnc65)O[C@@H]4CO[P@@](=O)(S)O[C@H]3[C@H]2O)c(=O)[nH]1` [Compound 24, 2-amino-9-((2R,3R,3aS,5R,7aR,9R,10R,10aR,12R,14aR)-9-(6-amino-9H-purin-9-yl)-10-fluoro-3-hydroxy-5,12-dimercapto-5,12-dioxidooctahydro-2H,7H-difuro[3,2-d:3′,2′-j][1,3,7,9]tetraoxa[2,8]diphosphacyclododecin-2-yl)-1,9-dihydro-6H-purin-6-one], on hSTING HAQ allele, the “activity relative to OH reference compound, in words” value is on record as “improved activity” and a half-maximal effect (EC50) was put at 13 µM. In assay [1], this molecule gave a Kd of 0.037 µM. Moreover, on hSTING(REF), the “hSTING Tm Shift REF” value came out at 9.7 °C and the “binding relative to OH reference compound, in words” value was “improved binding”. On hSTING(WT), the “hSTING Tm Shift WT” value was 15.9 °C and the “binding relative to OH reference compound, in words” value is listed as “improved binding”. For the same molecule, at HAQ allele hSTING, the “hSTING Tm Shift HAQ” value was determined as 28.8 °C and the “binding relative to OH reference compound, in words” value is on record as “improved binding”. Also, the “cytokine responses” value in assay [2] is “induced more robust dose-dependent responses of each of the cytokines tested”.

For `Nc1nc2c(ncn2[C@@H]2O[C@@H]3CO[P@@](=O)(S)O[C@H]4[C@@H](O)[C@H](n5cnc6c(N)ncnc65)O[C@@H]4CO[P@@](=O)(S)O[C@H]3[C@H]2F)c(=O)[nH]1` [Compound 23, 2-amino-9-((2R,3R,3aR,5R,7aR,9R,10R,10aS,12R,14aR)-9-(6-amino-9H-purin-9-yl)-3-fluoro-10-hydroxy-5,12-dimercapto-5,12-dioxidooctahydro-2H,7H-difuro[3,2-d:3′,2′-j][1,3,7,9]tetraoxa[2,8]diphosphacyclododecin-2-yl)-1,9-dihydro-6H-purin-6-one], at hSTING HAQ allele, the “activity relative to OH reference compound, in words” value is on record as “improved activity” and the half-maximal effective concentration (EC50) – broadly, the concentration giving half of the maximal effect – worked out at 15 µM. This molecule returned a Kd in assay [1] of 0.311 µM. For the same molecule, on hSTING(REF), the “hSTING Tm Shift REF” value was 9.5 °C and the “binding relative to OH reference compound, in words” value is on record as “improved binding”. Further, on hSTING(WT), the “hSTING Tm Shift WT” value was determined as 14.7 °C and the “binding relative to OH reference compound, in words” value is on record as “improved binding”. At HAQ allele hSTING, the “hSTING Tm Shift HAQ” value is 25.9 °C and the “binding relative to OH reference compound, in words” value was “improved binding”. Further, the “cytokine responses” value in assay [2] was “induced more robust dose-dependent responses of each of the cytokines tested”.
